The values that follow come from patent publication US20050209278A1, “Piperidinyl- and piperazinyl-sulfonylmethyl hydroxamic acids and their use as protease inhibitors” (priority 2002, published 2005).

Experiment [1] deals with T1, MMP-1 (Homo sapiens, UniProt P03956).
T1 construct: made in house; host or cells: MMP-1-transfected HT-1080 cells (spent media)
T1 sequence (P03956 100-469): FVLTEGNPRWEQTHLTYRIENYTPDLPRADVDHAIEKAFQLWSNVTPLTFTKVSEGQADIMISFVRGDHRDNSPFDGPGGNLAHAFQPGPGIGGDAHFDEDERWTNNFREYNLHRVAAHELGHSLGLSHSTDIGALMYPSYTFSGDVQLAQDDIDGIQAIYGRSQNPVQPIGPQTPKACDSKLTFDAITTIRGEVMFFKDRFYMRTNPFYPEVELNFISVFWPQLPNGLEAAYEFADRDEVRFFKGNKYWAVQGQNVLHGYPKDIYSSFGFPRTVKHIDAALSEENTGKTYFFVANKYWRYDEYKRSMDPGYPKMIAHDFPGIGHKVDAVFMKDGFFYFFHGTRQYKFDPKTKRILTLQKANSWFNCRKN
The experiment in a line: In vitro MMP inhibition, IC50 determination (fluorogenic substrate I). Format: biochemical. As to conditions: value in parentheses; read-out: MMP-1 (IC-50). Here is the method:
Several hydroxamic acids and salts thereof were analyzed in in vitro assays to determine their ability to inhibit the MMP cleavage of peptide substrates. […] and IC50 constants were calculated from the assayed hydroxamic acid-MMP interactions. Human recombinant MMP-1, MMP-2, MMP-9, MMP-13, and MMP-14 were used in this assay. All enzymes were prepared in Assignee's laboratories following usual laboratory procedures. Protocols for the preparation and use of these enzymes are available in the scientific literature. See, e.g., Enzyme Nomenclature (Academic Press, San Diego, Calif., 1992) (and the citations therein). See also, Freije et al., “Molecular cloning and expression of collagenase-3, a novel human matrix metalloproteinase produced by breast carcinomas,” J Biol. Chem., 269(24), 16766-16773 (1994). The MMP-1 proenzyme was purified from the spent media of MMP-1-transfected HT-1080 cells provided by Dr. Harold Welgus of Washington University (St. Louis, Mo.). The protein was purified on a zinc chelating column. All MMPs were activated using 4-aminophenylmercuric acetate (“APMA”, Sigma Chemical, St. Louis, Mo.) or trypsin. MMP-9 also was activated using human recombinant MMP-3 (purified in Assignee's laboratory following standard cloning and purification techniques). […] Substrate (I) was purchased from Baychem (Redwood City, Calif.), and substrate II was prepared Assignee's laboratory. Substrate I was used in the IC50 determination assays, while substrate II was used in the Ki determination assays. In the absence of MMP inhibitory activity, either substrate is cleaved at the Gly-Leu peptide bond. […] The stock solutions of the assayed hydroxamic acids (or salts thereof) were prepared in 1% dimethyl sulfoxide (DMSO). […] The experiment controls contained the same amount of Buffer A/DMSO as the assayed sample, but contained no hydroxamic acid (or salt thereof). The assays from which the IC50 determinations were made were performed as follows. […] Louis, Mo.). The assayed hydroxamic acid samples were incubated in MicrofluorTM White Plates (Dynatech, Chantilly, Va.) and analyzed on a Perkin Elmer […] plate reader (Norwalk, Conn.). The excitation wavelength was 328 nm, and the emission wavelength-415 nm. […] As stated in the previous paragraph, samples containing varying concentrations of the same assayed hydroxamic acid were prepared. Inhibition was measured as a reduction in fluorescent intensity as a function of MMP inhibitor concentration. […] All values in Table 2 are given in nM units. The IC50 measurements are in parenthesis.

In experiment [2] the target is T2, MMP-9 (Homo sapiens, UniProt P14780).
T2 construct: made in house; host or cells: MMP-9-transfected HT1080 cells (spent media)
Described as above. Format: biochemical. As to conditions: value in parentheses; read-out: MMP-9 (IC-50). The procedure:
Several hydroxamic acids and salts thereof were analyzed in in vitro assays to determine their ability to inhibit the MMP cleavage of peptide substrates. […] and IC50 constants were calculated from the assayed hydroxamic acid-MMP interactions. Human recombinant MMP-1, MMP-2, MMP-9, MMP-13, and MMP-14 were used in this assay. All enzymes were prepared in Assignee's laboratories following usual laboratory procedures. Protocols for the preparation and use of these enzymes are available in the scientific literature. See, e.g., Enzyme Nomenclature (Academic Press, San Diego, Calif., 1992) (and the citations therein). See also, Freije et al., “Molecular cloning and expression of collagenase-3, a novel human matrix metalloproteinase produced by breast carcinomas,” J Biol. Chem., 269(24), 16766-16773 (1994). The MMP-9 proenzyme was purified by gelatin Sepharose chromatography from spent media of MMP-9-transfected HT1080 cells provided by Dr. Howard Welgus of Washington University (St. Louis, Mo.). All MMPs were activated using 4-aminophenylmercuric acetate (“APMA”, Sigma Chemical, St. Louis, Mo.) or trypsin. MMP-9 also was activated using human recombinant MMP-3 (purified in Assignee's laboratory following standard cloning and purification techniques). […] Substrate (I) was purchased from Baychem (Redwood City, Calif.), and substrate II was prepared Assignee's laboratory. Substrate I was used in the IC50 determination assays, while substrate II was used in the Ki determination assays. In the absence of MMP inhibitory activity, either substrate is cleaved at the Gly-Leu peptide bond. […] The stock solutions of the assayed hydroxamic acids (or salts thereof) were prepared in 1% dimethyl sulfoxide (DMSO). […] The experiment controls contained the same amount of Buffer A/DMSO as the assayed sample, but contained no hydroxamic acid (or salt thereof). The assays from which the IC50 determinations were made were performed as follows. […] Louis, Mo.). The assayed hydroxamic acid samples were incubated in MicrofluorTM White Plates (Dynatech, Chantilly, Va.) and analyzed on a Perkin Elmer […] plate reader (Norwalk, Conn.). The excitation wavelength was 328 nm, and the emission wavelength-415 nm. […] As stated in the previous paragraph, samples containing varying concentrations of the same assayed hydroxamic acid were prepared. Inhibition was measured as a reduction in fluorescent intensity as a function of MMP inhibitor concentration. […] All values in Table 2 are given in nM units. The IC50 measurements are in parenthesis.

T2 sequence (P14780 107-707 limits assumed): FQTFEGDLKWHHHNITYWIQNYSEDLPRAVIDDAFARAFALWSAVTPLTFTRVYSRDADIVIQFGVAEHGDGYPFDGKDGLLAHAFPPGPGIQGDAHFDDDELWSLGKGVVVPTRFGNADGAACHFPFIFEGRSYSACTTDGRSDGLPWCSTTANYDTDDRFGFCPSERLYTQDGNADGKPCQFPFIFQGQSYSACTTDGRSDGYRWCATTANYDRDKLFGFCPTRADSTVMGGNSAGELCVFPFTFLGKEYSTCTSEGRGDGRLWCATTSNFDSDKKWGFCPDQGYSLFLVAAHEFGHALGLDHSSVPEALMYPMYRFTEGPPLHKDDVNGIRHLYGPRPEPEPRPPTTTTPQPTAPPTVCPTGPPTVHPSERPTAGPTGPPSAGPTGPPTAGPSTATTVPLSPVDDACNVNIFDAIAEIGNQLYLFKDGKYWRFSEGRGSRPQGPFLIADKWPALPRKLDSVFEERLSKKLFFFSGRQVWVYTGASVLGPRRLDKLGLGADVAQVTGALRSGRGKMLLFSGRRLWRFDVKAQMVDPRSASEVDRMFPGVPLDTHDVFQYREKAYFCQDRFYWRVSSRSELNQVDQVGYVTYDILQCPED

In the case of `CCCCOc1ccc(N2CCN(S(=O)(=O)C3(C(=O)NO)CCN(c4ccc(C)cc4)CC3)CC2)cc1` [Example 295], the values for the IC50 in experiment [1] and in experiment [2] were > 10000 nM and 0.1 nM, respectively.

Consider `CCCCOc1ccc(N2CCN(S(=O)(=O)C3(C(=O)NO)CCN(c4ccc(C)cc4)CC3)CC2)cc1F` [Example 296], for which the IC50 in experiment [1] was > 10000 nM; in experiment [2] it was 116 nM.

As for `COCCOc1ccc(N2CCN(S(=O)(=O)C3(C(=O)NO)CCN(C4CC4)CC3)CC2)cc1F` [Example 297], the IC50 in experiment [1] was > 10000 nM; in experiment [2], 31.1 nM.

Take `CCCCOc1ccc(N2CCN(S(=O)(=O)C3(C(=O)NO)CCN(CC4CC4)CC3)CC2)cc1` [Example 298]: the figures for the IC50 in experiment [1] and in experiment [2] were > 10000 nM and 3 nM, respectively.

As to `CCCCOc1ccc(N2CCN(S(=O)(=O)C3(C(=O)NO)CCN(C4CC4)CC3)CC2)cc1` [Example 301], the IC50 is > 10000 nM in experiment [1] and 0.6 nM in experiment [2].

On to `C#CCN1CCC(C(=O)NO)(S(=O)(=O)N2CCN(c3ccc(OCCCC)cc3)CC2)CC1` [Example 303], for which the IC50 in experiment [1] is > 10000 nM; in experiment [2] it was 0.3 nM.
